Results reported in patent publication US20090082328A1, “Substituted phenylamino-benzene derivatives useful for treating hyper-proliferative disorders and diseases associated with mitogen extracellular kinase activity” (Bayer Schering Pharma Aktiengesellschaft, priority 2007, published 2009).

System: not given
Experiment: not given
Details: phase I/II clinical trials in humans, literature [19]; cited from earlier work

Structure (SMILES) | clinical efficacy
O=C(NOCC1CC1)c1ccc(F)c(F)c1Nc1ccc(I)cc1Cl [PD184352] | insufficient efficacy

System: colon cancer
Experiment: not given
Details: oral treatment, mouse models, literature [18]; cited from earlier work

Structure (SMILES) | colon cancer growth in vivo
O=C(NOCC1CC1)c1ccc(F)c(F)c1Nc1ccc(I)cc1Cl [PD184352] | inhibit colon cancer growth

Target: T1, MEK1 (Homo sapiens, UniProt Q02750)
T1 construct: purchased Millipore 14-420
Experiment: MEK1 Activation Kinase Assay (Cot1, HTRF)
Format: biochemical
Details: activation of GST-MEK1 by Cot1
Experimental: The kinase Cot1 activates MEK1 by phosphorylating its activation loop. The inhibitory activity of compounds of the present invention on this activation of MEK1 was quantified employing the HTRF assay described in the following paragraphs.
As substrate for the kinase reaction the unactive C-terminally His6-tagged GST-MEK1 fusion protein (Millipore cat. no 14-420) was used.
630 (Sigma), 5 mM β-phospho-glycerol] were added and the mixture was incubated for 10 min at 22° C. to allow pre-binding of the test compounds to the GST-MEK1 before the start of the kinase reaction. Then the kinase reaction was started by the addition of 2 μl of a solution of Cot1 in assay buffer and the resulting mixture was incubated for a reaction time of 20 min at 22° C. The concentration of Cot1 in the assay was adjusted depending of the activity of the enzyme lot and was chosen appropriate to have the assay in the linear range, typical enzyme concentrations were in the range of about 2 ng/μl (final conc. in the 5 μl assay volume). […] The resulting mixture was incubated 2 h at 22° C. to allow the binding of the phosphorylated GST-MEK1 to the anti-GST-XL665 and the Eu-cryptate labelled anti-phospho-MEK 1/2 antibody. Subsequently the amount of Ser217/Ser221-phosphorylated substrate was evaluated by measurement of the resonance energy transfer from the Eu-Cryptate-labelled anti-phospho-MEK antibody to the anti-GST-XL665.

T1 sequence (Q02750 whole entry): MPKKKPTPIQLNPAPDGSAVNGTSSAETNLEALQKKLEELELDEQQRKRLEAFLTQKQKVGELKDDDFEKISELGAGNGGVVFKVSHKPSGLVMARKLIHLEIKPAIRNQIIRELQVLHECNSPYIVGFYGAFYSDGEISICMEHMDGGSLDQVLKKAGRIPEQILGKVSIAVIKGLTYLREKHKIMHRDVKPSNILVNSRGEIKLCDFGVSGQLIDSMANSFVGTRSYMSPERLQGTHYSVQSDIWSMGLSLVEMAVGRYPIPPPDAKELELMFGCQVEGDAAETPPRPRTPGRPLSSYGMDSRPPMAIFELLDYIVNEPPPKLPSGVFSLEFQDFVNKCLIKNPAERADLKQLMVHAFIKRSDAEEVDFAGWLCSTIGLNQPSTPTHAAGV

IC50 [nM] | Structure (SMILES)
< 250 | NC(=O)c1c(Nc2ccc(I)cc2F)cc(F)cc1Oc1ccccc1 [Example 5.2, 4-Fluoro-2-(2-fluoro-4-iodo-phenylamino)-6-phenoxy-benzamide]
< 250 | NC(=O)c1c(Nc2ccc(I)cc2F)cc(F)cc1Oc1cccc(N2CCCS2(=O)=O)c1 [Example 6.6, 2-[3-(1,1-Dioxo-1λ^6-isothiazolidin-2-yl)-phenoxy]-4-fluoro-6-(2-fluoro-4-iodo-phenylamino)-benzamide]
< 250 | CN(C)S(=O)(=O)Nc1cccc(Oc2cc(F)cc(Nc3ccc(I)cc3F)c2C(N)=O)c1 [Example 3.2, 2-[3-[[(dimethylamino)sulfonyl]amino]phenoxy]-4-fluoro-6-[(2-fluoro-4-iodophenyl)amino]-benzamide]
< 1000 | CS(=O)(=O)N1CCCCC1CCOc1cc(F)cc(Nc2ccc(I)cc2F)c1C(N)=O (stereo not shown) [Example 6.22, 4-Fluoro-2-(2-fluoro-4-iodo-phenylamino)-6-[2-(1-methanesulfonyl-piperidin-2-yl)-ethoxy]-benzamide]
< 250 | CC(C)(O)C(O)CCOc1cc(F)cc(Nc2ccc(I)cc2F)c1C(N)=O (stereo not shown) [Example 7.1, 2-(3,4-Dihydroxy-4-methyl-pentyloxy)-4-fluoro-6-(2-fluoro-4-iodo-phe-nylamino)-benzamide]
< 250 | CS(=O)(=O)Nc1cccc(Oc2cc(F)cc(Nc3ccc(I)cc3F)c2C(N)=O)c1 [Example 6.1a, 4-Fluoro-2-(2-fluoro-4-iodo-phenylamino)-6-(3-methanesulfonylamino-phenoxy)-benzamide]
< 250 | NC(=O)c1c(Nc2ccc(I)cc2F)cc(F)cc1OCCc1cccnc1 [Example 3.5, 4-Fluoro-2-(2-fluoro-4-iodo-phenylamino)-6-(2-pyridin-3-yl-ethoxy)-benzamide]
< 1000 | CN(C)S(=O)(=O)Nc1cccc(Oc2cc(F)cc(Nc3ccc(I)cc3F)c2C#N)c1 [Example 2.1, N′-[3-[2-cyano-5-fluoro-3-[(2-fluoro-4-iodophenyl)amino]phenoxy]phenyl]-N,N-dimethyl-sulfamide]
< 250 | NC(=O)c1c(Nc2ccc(I)cc2F)cc(F)cc1O[C@@H]1C[C@@H](O)[C@@H](O)C1 [Example 7.7]
< 250 | NC(=O)c1c(Nc2ccc(I)cc2F)cc(F)cc1OCCCNS(=O)(=O)c1ccccc1 [Example 6.11, 2-(3-Benzene-sulfonylamino-propoxy)-4-fluoro-6-(2-fluoro-4-iodo-phenylamino)-benzamide]
< 250 | NC(=O)c1c(Nc2ccc(I)cc2F)cc(F)cc1OCCC1CCCCN1 (stereo not shown) [Example 4.5, 4-Fluoro-2-(2-fluoro-4-iodo-phenylamino)-6-(2-piperidin-2-yl-ethoxy)-benzamide]
< 250 | NC(=O)c1c(Nc2ccc(I)cc2F)cc(F)cc1OCCCN1CCCC1=O [Example 3.3, 4-Fluoro-2-(2-fluoro-4-iodo-phenylamino)-6-[3-(2-oxo-pyrrolidin-1-yl)-propoxy]-benzamide]
< 250 | NC(=O)c1c(Nc2ccc(I)cc2F)cc(F)cc1OCC1CNC1 [Example 4.6, 2-(Azeitidn-3-ylmethoxy)-4-fluoro-6-(2-fluoro-4-iodo-phenylamino)-benzamide]
< 250 | C#Cc1ccc(Nc2cc(F)cc(Oc3cccc(NS(=O)(=O)N(C)C)c3)c2C(N)=O)c(F)c1 [Example 9.4, 2-[3-[[(dimethylamino)sulfonyl]amino]phenyoxy]-4-fluoro-6-[(4-ethynyl-2-fluorophenyl)amino]-benzamide]
< 1000 | NC(=O)c1c(Nc2ccc(I)cc2F)cc(F)cc1Oc1ccc2c(c1)S(=O)(=O)CO2 [Example 5.1, 2-(3,3-Dioxo-2,3-dihydro-3λ^6-benzo[1,3]oxathiol-5-yloxy)-4-fluoro-6-(2-fluoro-4-iodo-phenylamino)-benzamide]
< 250 | C#Cc1ccc(Nc2cc(F)cc(Oc3cccc(NS(=O)(=O)NCCC)c3)c2C(N)=O)c(F)c1 [Example 9.5, 2-[3-[[(propylamino)sulfonyl]amino]phenyoxy]-4-fluoro-6-[(4-ethynyl-2-fluorophenyl)amino]-benzamide]
< 250 | Cn1cnc(S(=O)(=O)NCCCOc2cc(F)cc(Nc3ccc(I)cc3F)c2C(N)=O)c1 [Example 6.17, 4-Fluoro-2-(2-fluoro-4-iodo-phenylamino)-6-[3-(1-methyl-1H-imidazole-4-sulfonylamino)-propoxy]-benzamide]
< 250 | NC(=O)c1c(Nc2ccc(I)cc2F)cc(F)cc1Oc1cccc(N)c1 [Example 4.1, 2-(3-Amino-phenoxy)-4-fluoro-6-(2-fluoro-4-iodo-phenylamino)-benz-amide]
< 250 | CCCNS(=O)(=O)Nc1cccc(Oc2cc(F)cc(Nc3ccc(I)cc3F)c2C(N)=O)c1 [Example 6.3, 2-[3-[[(propylamino)sulfonyl]amino]phenoxy]-4-fluoro-6-[(2-fluoro-4-iodophenyl)amino]-benzamide]
< 1000 | CS(=O)(=O)N1CCCC(COc2cc(F)cc(Nc3ccc(I)cc3F)c2C(N)=O)C1 (stereo not shown) [Example 6.15, 4-Fluoro-2-(2-fluoro-4-iodo-phenylamino)-6-(1-methanesulfonyl-piperidin-3-ylmethoxy)-benzamide]

Structure (SMILES) | IC50 [nM]
NC(=O)c1c(Nc2ccc(I)cc2F)cc(F)cc1OC[C@H](O)[C@@H](O)CO [Example 3.8, 4-Fluoro-2-(2-fluoro-4-iodo-phenylamino)-6-((2S,3S)-2,3,4-trihydroxy-butoxy)-benzamide] | < 250
C#Cc1ccc(Nc2cc(F)cc(OCC[C@@H](O)CO)c2C(N)=O)c(F)c1 [Example 9.1, 2-((R)-3,4-Dihydroxy-butoxy)-6-(4-ethynyl-2-fluoro-phenylamino)-4-fluoro-benzamide] | < 1000
NC(=O)c1c(Nc2ccc(I)cc2F)cc(Cl)cc1OCC[C@@H](O)CO [Example 11.3, 4-Chloro-2-((R)-3,4-dihydroxy-butoxy)-6-(2-fluoro-4-iodo-phenylamino)-benzamide] | < 1000
NC(=O)c1c(Nc2ccc(I)cc2)cc(F)cc1OCC[C@@H](O)CO [Example 8.5, 2-((R)-3,4-Dihydroxy-butoxy)-4-fluoro-6-(4-iodo-phenylamino)-benzamide] | < 1000
NC(=O)c1c(Nc2ccc(I)cc2F)cc(F)cc1Oc1cccc(NS(N)(=O)=O)c1 [Example 6.7, 2-[3-[[(amino)sulfonyl]amino]phenoxy]-4-fluoro-6-[(2-fluoro-4-iodophenyl)amino]-benzamide] | < 250
NC(=O)c1c(Nc2ccc(I)cc2F)cc(F)cc1OCC[C@@H](O)CN1CCOCC1 [Example 10.6, 4-Fluoro-2-(2-fluoro-4-iodo-phenylamino)-6-((R)-3-hydroxy-4-morpholin-4-yl-butoxy)-benzamide] | < 250
NC[C@H](O)CCOc1cc(F)cc(Nc2ccc(I)cc2F)c1C(N)=O [Example 10.3, 2-((R)-4-Amino-3-hydroxy-butoxy)-4-fluoro-6-(2-fluoro-4-iodo-phenylamino)-benzamide] | < 250
CNC(=O)c1c(Nc2ccc(I)cc2F)cc(F)cc1OCC[C@@H](O)CO [Example 12.8, 2-((R)-3,4-Dihydroxy-butoxy)-4-fluoro-6-(2-fluoro-4-iodo-phenylamino)-N-methyl-benzamide] | < 250
NC(=O)c1c(Nc2ccc(Br)cc2F)cc(F)cc1OCC[C@@H](O)CO [Example 8.4, 2-(4-Bromo-2-fluoro-phenylamino)-6-((R)-3,4-dihydroxy-butoxy)-4-fluoro-benzamide] | < 1000
